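Test compounds were applied to cells in 96-well plates for 48 hours at 5 doses. The concentration for 50% growth inhibition is given as GI50. TGI marks complete inhibition of growth.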
What was measured:
P388/ADR leukemia = assay: NCI tumour cell line growth inhibition, 48 h
P388 leukemia = assay: NCI tumour cell line growth inhibition, 48 h

O=C(O)C1(C(=O)O)CCC1.[NH2-].[NH2-].[Pt+2]
GI50 (P388/ADR leukemia): 33.3 µM
TGI (P388/ADR leukemia): 218 µM
GI50 (P388 leukemia): 15.4 µM
TGI (P388 leukemia): 169 µM

Reference: PubChem BioAssay (NCI)
